Experimental data published in PubChem BioAssay AID1919017 (Molecular Pharmacology Branch, DTP, NCI, 2023).
Values joined by “and” are separate entries in the source; they are usually repeats but may differ in a detail not shown here. Equal values may be shown once.

Tested on: SW1271 complex spheroids with HUVEC/MSC, growth, % test/control
Experiment: Anticancer human tumor SW1271 cell line growth inhibition [AhR];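 also: spheroids exposed to agents for 7 days before readout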
Details: for viability, T/C: stronger effect = lower value
Summary of the method: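 Spheroids combined tumor cells with HUVEC endothelial cells and human MSCs as stroma. AhR antagonists were paired with standard or investigational drugs, each dosed in half-log steps down from near clinical Cmax, or from 10 microM where Cmax was unknown.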

[1] = curve of first compound, second compound 0.1 µM
[2] = curve of first compound, second compound 0.316 µM
[3] = curve of first compound, second compound 1 µM
[4] = curve of first compound, second compound 3.16 µM
[5] = curve of first compound, second compound 10 µM
[6] = second compound 0.1 µM, first compound 0.0316 µM
[7] = second compound 0.1 µM, first compound 0.1 µM
[8] = second compound 0.1 µM, first compound 0.316 µM
[9] = second compound 0.1 µM, first compound 1 µM
[10] = second compound 0.1 µM, first compound 3.16 µM
[11] = second compound 0.1 µM, first compound 10 µM
[12] = second compound 0.316 µM, first compound 0.0316 µM
[13] = second compound 0.316 µM, first compound 0.1 µM
[14] = second compound 0.316 µM, first compound 0.316 µM
[15] = second compound 0.316 µM, first compound 1 µM
[16] = second compound 0.316 µM, first compound 3.16 µM
[17] = second compound 0.316 µM, first compound 10 µM
[18] = second compound 1 µM, first compound 0.0316 µM
[19] = second compound 1 µM, first compound 0.1 µM
[20] = second compound 1 µM, first compound 0.316 µM
[21] = second compound 1 µM, first compound 1 µM
[22] = second compound 1 µM, first compound 3.16 µM
[23] = second compound 1 µM, first compound 10 µM
[24] = second compound 3.16 µM, first compound 0.0316 µM
[25] = second compound 3.16 µM, first compound 0.1 µM
[26] = second compound 3.16 µM, first compound 0.316 µM
[27] = second compound 3.16 µM, first compound 1 µM
[28] = second compound 3.16 µM, first compound 3.16 µM
[29] = second compound 3.16 µM, first compound 10 µM
[30] = second compound 10 µM, first compound 0.0316 µM
[31] = second compound 10 µM, first compound 0.1 µM
[32] = second compound 10 µM, first compound 0.316 µM
[33] = second compound 10 µM, first compound 1 µM
[34] = second compound 10 µM, first compound 3.16 µM
[35] = second compound 10 µM, first compound 10 µM

| Structure (SMILES) | IC50 [1] | IC50 [2] | IC50 [3] | IC50 [4] | IC50 [5] | viability, T/C [6] | viability, T/C [7] | viability, T/C [8] | viability, T/C [9] | viability, T/C [12] | viability, T/C [13] | viability, T/C [14] | viability, T/C [15] | viability, T/C [18] | viability, T/C [19] | viability, T/C [20] | viability, T/C [21] | viability, T/C [24] | viability, T/C [25] | viability, T/C [26] | other results |
| --- | --- | --- | --- | --- | --- | --- | --- | --- | --- | --- | --- | --- | --- | --- | --- | --- | --- | --- | --- | --- | --- |
| CC1COCCN1c1cc(C2(S(C)(=N)=O)CC2)nc(-c2ccnc3[nH]ccc23)n1 (configuration not stated) |  |  |  |  |  |  |  |  |  |  |  |  |  |  |  |  |  |  |  |  | viability, T/C (compound 0.0316 µM): 106% and 99.7% and 91.9%; viability, T/C (compound 0.1 µM): 85.4% and 106% and 103%; viability, T/C (compound 0.316 µM): 87.8% (2×) and 79.2%; viability, T/C (compound 1 µM): 77.5% and 84% and 73.8%; viability, T/C (compound 3.16 µM): 80.1% and 69.6% and 68.8%; viability, T/C (compound 10 µM): 59.5% and 70.1% and 51.9%; IC50 (curve of compound): > 10 µM |
| COc1cccc2c1C(=O)c1c(O)c3c(c(O)c1C2=O)CC(O)(C(=O)CO)CC3OC1CC(N)C(O)C(C)O1 (configuration not stated) + Cc1ccccc1N=Nc1ccc(NC(=O)c2ccnn2C)c(C)c1 | < 0.0316 µM | < 0.0316 µM | 0.152 µM | 0.115 µM | 0.128 µM | 39.7% | 52.7% | 32.5% | 3% | 52.6% | 45.9% | 34.7% | 2.92% | 56.4% | 58.8% | 36.6% | 3.45% | 54.6% | 49.7% | 34.9% | viability, T/C [10]: 3.18%; viability, T/C [11]: 2.71%; viability, T/C [16]: 2.63%; viability, T/C [17]: 3.51%; viability, T/C [22]: 3.18%; viability, T/C [23]: 4.18%; viability, T/C [27]: 2.56%; viability, T/C [28]: 3.52%; viability, T/C [29]: 3.41%; viability, T/C [30]: 57.6%; viability, T/C [31]: 50.4%; viability, T/C [32]: 35.4%; viability, T/C [33]: 1.26%; viability, T/C [34]: 3.22%; viability, T/C [35]: 3.53% |
| NS(=O)(=O)OCC1CC(n2ccc3c(NC4CCc5ccccc54)ncnc32)CC1O (configuration not stated) + CC(CO)NC(=O)c1cc(-c2ccc(Cl)cc2)nn(-c2cnn(C)c2)c1=O | 3.42 µM | 2.91 µM | 3.16 µM | > 10 µM | > 10 µM | 112% | 133% | 96.5% | 65.9% | 127% | 115% | 92.5% | 58.5% | 125% | 127% | 118% | 69.2% | 133% | 129% | 108% | viability, T/C [10]: 44.6%; viability, T/C [11]: 51.8%; viability, T/C [16]: 47.3%; viability, T/C [17]: 49.7%; viability, T/C [22]: 48.2%; viability, T/C [23]: 50.6%; viability, T/C [27]: 69.2%; viability, T/C [28]: 54%; viability, T/C [29]: 59.3%; viability, T/C [30]: 86.2%; viability, T/C [31]: 104%; viability, T/C [32]: 103%; viability, T/C [33]: 76%; viability, T/C [34]: 62.6%; viability, T/C [35]: 63.6% |
| CC1COCCN1c1cc(-c2ccnn2C)c2ccnc(-c3ccn[nH]3)c2n1 (configuration not stated) + Cc1ccccc1N=Nc1ccc(NC(=O)c2ccnn2C)c(C)c1 | 0.683 µM | > 1 µM | > 1 µM | > 1 µM | > 1 µM | 88.5% | 72.7% | 61.6% | 44.6% | 92.7% | 81.2% | 74.8% | 49.2% | 106% | 83.6% | 85.3% | 49.6% | 85.8% | 57% | 63.5% | viability, T/C (second compound 0.1 µM, first compound 0.00316 µM): 98.9%; viability, T/C (second compound 0.1 µM, first compound 0.01 µM): 97.4%; viability, T/C (second compound 0.316 µM, first compound 0.00316 µM): 102%; viability, T/C (second compound 0.316 µM, first compound 0.01 µM): 126%; viability, T/C (second compound 1 µM, first compound 0.00316 µM): 112%; viability, T/C (second compound 1 µM, first compound 0.01 µM): 96.9%; viability, T/C (second compound 3.16 µM, first compound 0.00316 µM): 100%; viability, T/C (second compound 3.16 µM, first compound 0.01 µM): 102%; viability, T/C [27]: 63%; viability, T/C (second compound 10 µM, first compound 0.00316 µM): 93.3%; viability, T/C (second compound 10 µM, first compound 0.01 µM): 95%; viability, T/C [30]: 99.9%; viability, T/C [31]: 72.3%; viability, T/C [32]: 55.1%; viability, T/C [33]: 58.2% |
